For 6 compounds, half-life, ED50 and EC50 results are on record in ChEMBL document CHEMBL1136637, “Prodrugs to enhance central nervous system effects of the TRH-like peptide pGlu-Glu-Pro-NH2” (Bioorg Med Chem Lett, 2003).

A short description of series [1]: Half-life using mouse brain homogenate. Format: ADME.
The species entered for series [2] is Mus musculus. The experiment in a line: (§1) Effective dose required for producing 50% of the maximum analeptic response was determined. In kind it is functional.
The species entered for series [3] is Mus musculus. The description is as §1. Format: functional, organism-based.

Square brackets hold non-standard residues; d marks the D form. Peptide text beside a SMILES is read from it. * marks the point of attachment. ξ: configuration not given here. pGlu = O=C1CC[C@@H](C(=O)O)N1; ξE = NC(CCC(=O)O)C(=O)O; OcHex = C1CCC(O*)CC1; OBn = c1ccc(CO*)cc1; OtBu = CC(C)(C)O*

Broadly, the half-life is the time needed for the level to fall by half in the phase considered. Lower therefore signals fast loss. For orientation: ED50 means the dose at which the effect has come halfway, by size or by number of responders. The low end stands for an effect at a small dose, the high end for a need for a large dose. On to `CCCCCCOC(=O)CCC(NC(=O)[C@@H]1CCC(=O)N1)C(=O)N1CCC[C@H]1C(N)=O` (some centres not stated), for which the half-life in series [1] was determined as 22 min. It took a dose of 2.4 µmol/kg to reach the 50% effect level in the series filed under Mus musculus [2] (ED50).
In the series listed under Mus musculus [3], `NC(=O)[C@@H]1CCCN1C(=O)[C@H](CCC(=O)O)NC(=O)[C@@H]1CCC(=O)N1` ([pGlu]-Glu-Pro-NH2) showed an EC50 of 23.2 µM/kg.
With `NC(=O)[C@@H]1CCCN1C(=O)C(CCC(=O)OCc1ccccc1)NC(=O)[C@@H]1CCC(=O)N1` (some centres not stated) ([pGlu]-[ξE](OBn)-Pro-NH2), in series [1], the half-life was above 120 min.
Still for that read-out and setting: the result for `COC(=O)CCC(NC(=O)[C@@H]1CCC(=O)N1)C(=O)N1CCC[C@H]1C(N)=O` (some centres not stated) ([pGlu]-[ξE](OMe)-Pro-NH2) reads 20 min; that for `NC(=O)[C@@H]1CCCN1C(=O)C(CCC(=O)OC1CCCCC1)NC(=O)[C@@H]1CCC(=O)N1` (some centres not stated) ([pGlu]-[ξE](OcHex)-Pro-NH2), 25 min.
Compound `CC(C)(C)OC(=O)CCC(NC(=O)[C@@H]1CCC(=O)N1)C(=O)N1CCC[C@H]1C(N)=O` (some centres not stated) ([pGlu]-[ξE](OtBu)-Pro-NH2) yielded a half-life in series [1] of 70 min.
